Data from patent US11634423B2, “Substituted pyrazolo[1,5-a]pyrimidines as inhibitors of interferon signaling” (Eli Lilly and Company, priority 2020, dated 2023).

What was measured:
[1] = target: T1, pseudokinase domain (JH2) of human TYK2 (Homo sapiens, UniProt P29597); assay: TYK2-JH2 Tracer Binding Assay; conditions: TR-FRET tracer displacement, His-tagged TYK2-JH2 0.200 nM, Tracer 2.00 nM, 30 minutes
T1 construct: The pseudokinase domain (JH2) of human JAK; made in house
Source text: The pseudokinase domain (JH2) of human JAK (Janus family of cytoplasmic tyrosine kinases) family tyrosine kinase 2 (TYK2) (Genbank NP_003322) with an N-terminal His6 tag is expressed in baculovirus and purified by HisPur Ni-NTA affinity and Superdex 200 size-exclusion chromatography. The compound prepared in Preparation 17, a conjugate of Alexa Fluor 647 dye (Thermo Fisher Scientific) and a suitable TYK2 JH2 binder, is referred to herein as “the Tracer”. A 3 fold, 10 point serial dilution of compound (Examples 1, 2, and 3) are prepared in 100% DMSO and 50 nL/well transferred to a Proxiplate-384F white plate (PerkinElmer 6008280) using acoustic liquid handling. Control wells used to determine percent inhibition contained 100% DMSO (50 nL) and either assay buffer containing the Tracer (2.00 nM final concentration) (min, low FRET) or diluted TYK2-JH2 enzyme (0.200 nM final concentration) and the Tracer (2.00 nM final concentration) (max, high FRET).
5.0 μL of His-tagged TYK2-JH2 (0.402 nM) and LanthaScreen Eu-anti-HIS Ab (4.02 nM, LifeTech, PV5597) in assay buffer (50 mM HEPES […], 10 mM magnesium chloride, 1 mM ethylene glycol-bis(β-aminoethyl ether)-N,N,N′,N′-tetraacetic acid, 0.01% Brij-35 and Milli-Q) water is added to the Proxiplate-384 plate containing the 50 nL of diluted compound and control wells. 5.0 μL of the Tracer (2.00 nM final concentration) in assay buffer is added to the plate and allowed to equilibrate for 30 minutes at ambient temperature. After 30 minutes, the plate is counted on a PerkinElmer Envision with the following settings: Excitation (340 nm), Tracer Emission (665 nm) and LanthaScreen Eu-anti-His Antibody Emission (615 nm). The ratio of Tracer Emission (665 nm) over LanthaScreen Eu-anti-His Antibody Emission (615 nm) is determined. Percent inhibition of ratio at each inhibitor concentration is calculated using the max and min control wells and fit to the four parameter nonlinear logistic equation in GeneData Screener® to give an IC50 for the compounds tested.

[2] = tested on: IFNα signaling through pSTAT1 in TF1 cells; assay: Inhibition of IFNα signaling through pSTAT1 in TF1 cells; format: cell-based; conditions: Homo sapiens, TF-1, 1 hour preincubation, 10 ng/mL IFNα2 for 20 minutes, p-Stat1 (Tyr701) AlphaLISA, geometric mean (SEM), read-out: IFNα inh IC50
Experimental: TF1 cells (ATCC, CL-2003) are grown in RPMI 1640 (GIBCO) supplemented with 10% dialyzed FBS, 0.1 mg/mL Ampicillin and 2 ng/mL granulocyte macrophage colony stimulating factor. TF1 cells (100 K per well) are seeded in a 96-well poly-D-lysine coated plates in serum-free DMEM and incubated overnight at 37° C. under 5% CO2. Example 1 is serially diluted in DMSO, added to the cells, and incubated at 37° C. for 1 hour. Cells are then stimulated with 10 ng/mL IFNα2 at 37° C. for 20 minutes. After removing the medium, the cells are lysed in buffer containing Halt protease and phosphatase inhibitor cocktail (Thermo Scientific #78441) at ambient temperature for 30 minutes. The amount of p-Stat1 (Tyr701) is quantified as light emission at 615 nm using the AlphaLISA SureFire Ultra p-Stat1 (Tyr701) assay kit (Perkin Elmer #ALSU-PST1-A50K) following the vendor's recommended protocol. Percent inhibition at each inhibitor concentration is calculated and fit to the four parameter nonlinear logistic equation using Genedata Screener© to give an IC50 for the compounds tested expressed as GeoMetric means with the standard error of the mean (SEM).

[3] = tested on: IL-23 signaling (STAT3 phosphorylation) in Kit225 cells; assay: IL23 pSTAT3 AlphaLISA Assay; format: cell-based; conditions: 0.5 h, 1 hour preincubation, IL-23 25 ng/mL for 30 minutes, in presence of IL-2, relative IC50, geometric mean (SEM), read-out: IL-23 inh IC50
Experimental: IL-2-dependent Kit225 cells (University of Texas MD Anderson Cancer Center) expressing endogenous IL-23 receptors are stably transduced with the Lenti STAT3 Reporter linked to firefly luciferase (SABiosciences CLS-6028L). These cells are used to monitor TYK2 activity by quantifying gene expression caused by STAT3 phosporylation following induction by IL-23 in the presence of IL-2 using AlphaLISA technology (TGR Biosciences ALSU-TST3-A50K). The cells are grown in RPMI 1640 (Gibco 22400) supplemented with 10% FBS (Invitrogen 10082), 1× Pen/Strep (Gibco 15140-122), 200 ng/ml Puromycin (Sigma P9620), and fresh 10 ng/ml recombinant human IL-2 (R&D Systems 202-IL-50).
For assay preparation, cells are dispensed into Biocoat black poly-d-lysine coated clear bottom 384-well plates (Becton Dickinson Bio-Coat 35-4640) in DMEM (Sigma D5796) at 300,000 cells/well and allowed to incubate overnight at 37° C. Compounds solubilized in DMSO are serially diluted 1:3 to produce a 10-point concentration response curve (final DMSO=0.1%). Cells are pre-incubated with Example 1 for 1 hour at 37° C., then stimulated with IL-23 (25 ng/mL final) for 30 minutes. After centrifugation at 2000 rpm for 10 minutes, cell pellets are lysed with a mixture of 1:1 lysis buffer (TGR Biosciences) and Halt Protease & Phosphatase inhibitor cocktail (Thermo Scientific 1861281) for 30 minutes. The AlphaLISA reaction is performed following the vendor's recommended protocol, and the luciferase levels are measured using an Envision plate reader (Perkin Elmer). The relative IC50 is calculated using a 4-parameter nonlinear logistic equation (GeneData Screener 13.0.5) to give an IC50 for the compounds tested expressed as GeoMetric means with the standard error of the mean (SEM).

T1 sequence (P29597 589-875 limits assumed): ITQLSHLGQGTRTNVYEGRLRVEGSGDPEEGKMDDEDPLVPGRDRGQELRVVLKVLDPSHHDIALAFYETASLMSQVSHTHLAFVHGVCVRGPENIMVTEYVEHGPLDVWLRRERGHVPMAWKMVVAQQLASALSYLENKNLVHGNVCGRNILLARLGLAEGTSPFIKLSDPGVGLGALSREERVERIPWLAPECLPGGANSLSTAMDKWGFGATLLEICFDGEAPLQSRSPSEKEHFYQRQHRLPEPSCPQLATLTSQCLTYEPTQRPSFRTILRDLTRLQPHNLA

## CNc1cc(Nc2cccn(-c3cccc(C)n3)c2=O)nc2c(C(=O)N[C@@H]3CCN(C)C3=O)cnn12 [Example 2, 7-(Methylamino)-N-[(3R)-1-methyl-2-oxo-pyrrolidin-3-yl]-5-[[1-(6-methyl-2-pyridyl)-2-oxo-3-pyridyl]amino]pyrazolo[1,5-a]pyrimidine-3-carboxamide]
[1]
  IC50: < 0.254 nM
[2]
  IC50: 206 nM
[3]
  IC50: 101 nM

## CNc1cc(Nc2cccn(-c3ccc(C)cn3)c2=O)nc2c(C(=O)N[C@@H]3CCN(C)C3=O)cnn12 [Example 1, 7-(Methylamino)-N-[(3R)-1-methyl-2-oxo-pyrrolidin-3-yl]-5-[[1-(5-methyl-2-pyridyl)-2-oxo-3-pyridyl]amino]pyrazolo[1,5-a]pyrimidine-3-carboxamide]
[1]
  IC50: < 0.254 nM
[2]
  IC50: 112 nM
[3]
  IC50: 65 nM

## CNc1cc(Nc2cccn(-c3ccccn3)c2=O)nc2c(C(=O)N[C@@H]3CCN(C)C3=O)cnn12 [Example 3, 7-(Methylamino)-N-[(3R)-1-methyl-2-oxo-pyrrolidin-3-yl]-5-[[2-oxo-1-(2-pyridyl)-3-pyridyl]amino]pyrazolo[1,5-a]pyrimidine-3-carboxamide]
[1]
  IC50: < 0.254 nM
[2]
  IC50: 106 nM
[3]
  IC50: 101 nM
